# Results published in ChEMBL document CHEMBL5137038, “Novel quinoline-based derivatives: A new class of PDE4B inhibitors for adjuvant-induced arthritis” (Eur J Med Chem, 2022).
# Target: 3',5'-cyclic-AMP phosphodiesterase 4B (Homo sapiens, UniProt Q07343)
# Test: Inhibition of PDE4B (unknown origin) using […] as substrate incubated for 1 hr by PDElight HTS cAMP phosphodiesterase assay
# Conditions: not given
# Sequence of 3',5'-cyclic-AMP phosphodiesterase 4B (Q07343 whole entry): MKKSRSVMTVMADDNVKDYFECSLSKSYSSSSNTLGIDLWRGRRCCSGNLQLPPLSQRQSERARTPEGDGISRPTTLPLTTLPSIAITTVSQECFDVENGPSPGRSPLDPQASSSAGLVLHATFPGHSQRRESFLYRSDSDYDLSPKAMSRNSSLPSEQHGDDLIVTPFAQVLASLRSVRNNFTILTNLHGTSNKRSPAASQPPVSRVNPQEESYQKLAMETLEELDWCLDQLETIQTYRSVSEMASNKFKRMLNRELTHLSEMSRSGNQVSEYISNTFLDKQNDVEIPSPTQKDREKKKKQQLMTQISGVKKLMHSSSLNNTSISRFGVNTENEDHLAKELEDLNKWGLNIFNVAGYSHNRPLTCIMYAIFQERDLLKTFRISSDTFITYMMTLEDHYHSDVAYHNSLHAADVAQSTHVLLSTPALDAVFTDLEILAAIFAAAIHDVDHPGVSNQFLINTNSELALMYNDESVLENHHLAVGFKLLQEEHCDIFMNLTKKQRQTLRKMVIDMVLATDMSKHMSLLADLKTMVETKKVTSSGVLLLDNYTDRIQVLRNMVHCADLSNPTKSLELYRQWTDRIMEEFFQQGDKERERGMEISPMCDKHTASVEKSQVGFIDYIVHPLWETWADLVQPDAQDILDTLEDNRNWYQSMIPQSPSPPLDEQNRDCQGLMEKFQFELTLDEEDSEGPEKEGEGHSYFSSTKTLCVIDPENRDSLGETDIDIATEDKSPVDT
row,SMILES,IC50 [µM]
1,CC(C)c1cc(C(C)C)c(S(=O)(=O)Nc2cccc(NS(=O)(=O)c3cccc4cccnc34)c2)c(C(C)C)c1,0.94

# Tested on: RAW264.7
# Test: Inhibition of LPS induced NO production in mouse RAW264.7 cells at 30 uM preincubated for 1 hr followed by LPS addition and measured after 24 hrs by Griess reagent based assay relative to control
# Format: functional
# Conditions: time 25 hrs
row,SMILES,inhibition at 30 µM [%]
1,O=S(=O)(Nc1cccc(NS(=O)(=O)c2cccc3cccnc23)c1)c1ccc(Br)cc1,20.2
2,O=S(=O)(Nc1cccc(NS(=O)(=O)c2cccc3cccnc23)c1)c1ccc(C(F)(F)F)cc1,40.6
3,O=S(=O)(Nc1cccc(NS(=O)(=O)c2cccc3cccnc23)c1)c1cccc(C(F)(F)F)c1,23.9
4,O=S(=O)(Nc1cccc(NS(=O)(=O)c2cccc3cccnc23)c1)c1ccc(F)cc1,19
5,CC(C)c1ccc(S(=O)(=O)Nc2cccc(NS(=O)(=O)c3cccc4cccnc34)c2)cc1,41.5
6,O=S(=O)(Nc1cccc(NS(=O)(=O)c2cccc3cccnc23)c1)c1ccc(Cl)cc1,6.7
7,CC(C)(C)c1ccc(S(=O)(=O)Nc2cccc(NS(=O)(=O)c3cccc4cccnc34)c2)cc1,39.3
8,Cc1ccc(S(=O)(=O)Nc2cccc(NS(=O)(=O)c3cccc4cccnc34)c2)cc1,11.4
9,O=S(=O)(Nc1cccc(NS(=O)(=O)c2cccc3cccnc23)c1)c1ccccc1C(F)(F)F,22
10,O=S(=O)(Nc1cccc(NS(=O)(=O)c2cccc3cccnc23)c1)c1cccc(Br)c1,31.1
11,O=S(=O)(Nc1cccc(NS(=O)(=O)c2cccc3cccnc23)c1)c1c(F)cccc1F,23.6
12,O=S(=O)(Nc1cccc(NS(=O)(=O)c2cccc3cccnc23)c1)c1ccccc1OC(F)(F)F,13.2
13,O=[N+]([O-])c1cccc(S(=O)(=O)Nc2cccc(NS(=O)(=O)c3cccc4cccnc34)c2)c1,28
14,O=S(=O)(Nc1cccc(NS(=O)(=O)c2cccc3cccnc23)c1)c1ccccc1F,30.2
15,O=S(=O)(Nc1cccc(NS(=O)(=O)c2cccc3cccnc23)c1)c1cccc(F)c1,17.8
16,COc1ccc(S(=O)(=O)Nc2cccc(NS(=O)(=O)c3cccc4cccnc34)c2)c(OC)c1,12.8
17,O=S(=O)(Nc1cccc(NS(=O)(=O)c2cccc3cccnc23)c1)c1ccc(I)cc1,39.5
18,O=S(=O)(Nc1cccc(NS(=O)(=O)c2cccc3cccnc23)c1)c1ccccc1Cl,12.1
19,O=S(=O)(Nc1cccc(NS(=O)(=O)c2cccc3cccnc23)c1)c1cc(Cl)cc(Cl)c1,29
20,O=S(=O)(Nc1cccc(NS(=O)(=O)c2cccc3cccnc23)c1)c1ccc(OC(F)(F)F)cc1,31.6
21,O=S(=O)(Nc1cccc(NS(=O)(=O)c2cccc3cccnc23)c1)c1ccccc1,23.8
22,COc1ccc(Br)cc1S(=O)(=O)Nc1cccc(NS(=O)(=O)c2cccc3cccnc23)c1,16.3
23,COc1ccc(S(=O)(=O)Nc2cccc(NS(=O)(=O)c3cccc4cccnc34)c2)cc1OC,32.3
24,O=S(=O)(Nc1cccc(NS(=O)(=O)c2cccc3cccnc23)c1)c1ccccc1Br,23.6
25,CC(=O)Nc1ccc(S(=O)(=O)Nc2cccc(NS(=O)(=O)c3cccc4cccnc34)c2)cc1,7.74
26,N#Cc1ccc(S(=O)(=O)Nc2cccc(NS(=O)(=O)c3cccc4cccnc34)c2)cc1,25.2
27,O=S(=O)(Nc1cccc(NS(=O)(=O)c2cccc3cccnc23)c1)c1c(Cl)cccc1Cl,24.7
28,COc1ccc2c(c1)c(CC(=O)O)c(C)n2C(=O)c1ccc(Cl)cc1 [INDOMETHACIN],42.5

# Tested on: RAW264.7
# Test: Inhibition of LPS induced NO production in mouse RAW264.7 cells preincubated for 1 hr followed by LPS addition and measured after 24 hrs by Griess reagent based assay
# Format: functional, cell-based
# Conditions: not given
row,SMILES,IC50 [µM]
1,COc1ccc2c(c1)c(CC(=O)O)c(C)n2C(=O)c1ccc(Cl)cc1 [INDOMETHACIN],34.3
